Where a name gives a salt, the structure may show the parent alone. Read-outs that look alike come from different tables or passages of the source.

Common to all, as to assay: AK assay 384-well format, Prestwick library screening
For assay [1], the system named is S. aureus strain USA300-0114. The format is cell-based, Staphylococcus aureus. The conditions noted are these: 50 μM final drug concentration; for fold induction at 50 µM: Staphylococcus aureus, USA300, 3 h, cutoff for positive-scoring molecules 3-fold increase.
Assay [2] concerns E. faecium. The format is cell-based, Enterococcus faecium. The conditions noted are these: 50 μM final drug concentration; for fold induction at 50 µM: Enterococcus faecium, 3 h, cutoff for positive-scoring molecules 3-fold increase.
The test system of assay [3] is E. cloacae. The assay is classed as cell-based, Enterobacter cloacae. The conditions noted are these: 50 μM final drug concentration; for fold induction at 50 µM: Enterobacter cloacae, 3 h, cutoff for positive-scoring molecules 3-fold increase.
Assay [4] has as its system K. pneumoniae. The format is cell-based, Klebsiella pneumoniae. The conditions noted are these: 50 μM final drug concentration; for fold induction at 50 µM: Klebsiella pneumoniae, 3 h, cutoff for positive-scoring molecules 3-fold increase.
In assay [5] the test system is P. aeruginosa. The format is cell-based, Pseudomonas aeruginosa. The conditions noted are these: 50 μM final drug concentration; for fold induction at 50 µM: Pseudomonas aeruginosa, 3 h, cutoff for positive-scoring molecules 3-fold increase.
The test system of assay [6] is A. baumannii strain 98-37-09. The assay is classed as cell-based, Acinetobacter baumannii. The conditions noted are these: 50 μM final drug concentration; for fold induction at 50 µM: Acinetobacter baumannii, 983709, 3 h, cutoff for positive-scoring molecules 3-fold increase.
Assay [7] deals with E. coli. The assay is classed as cell-based, Escherichia coli. The conditions noted are these: 50 μM final drug concentration; for fold induction at 50 µM: Escherichia coli, 3 h, cutoff for positive-scoring molecules 3-fold increase.
[8] abbreviates: planktonic S. aureus, 384-well, read-out: AK-based Prestwick Library Screening Results: S. aureus (increase in extracellular AK activity).
The mark [9] stands for this setting: planktonic E. faecium, 384-well, read-out: AK-based Prestwick Library Screening Results: E. faecium (increase in extracellular AK activity).
[10] abbreviates: planktonic E. cloacae, 384-well, read-out: AK-based Prestwick Library Screening Results: E. cloacae (increase in extracellular AK activity).
The mark [11] stands for this setting: planktonic K. pneumoniae, 384-well, read-out: AK-based Prestwick Library Screening Results: K. pneumoniae (increase in extracellular AK activity).
Setting [12] is: planktonic P. aeruginosa, 384-well, read-out: AK-based Prestwick Library Screening Results: P. aeruginosa (increase in extracellular AK activity).
Setting [13] is: planktonic A. baumannii, 384-well, read-out: AK-based Prestwick Library Screening Results: A. baumannii (increase in extracellular AK activity).
Setting [14] is: planktonic E. coli, 384-well, read-out: AK-based Prestwick Library Screening Results: E. coli (increase in extracellular AK activity).
Setting [15] is: planktonic S. aureus, read-out: AK-based Prestwick Library Screening Results, S. aureus (increase in extracellular AK activity).
Setting [16] is: planktonic E. faecium, read-out: AK-based Prestwick Library Screening Results, E. faecium (increase in extracellular AK activity).
Where [17] appears, read: planktonic E. cloacae, read-out: AK-based Prestwick Library Screening Results, E. cloacae (increase in extracellular AK activity).
The mark [18] stands for this setting: planktonic K. pneumoniae, read-out: AK-based Prestwick Library Screening Results, K. pneumoniae (increase in extracellular AK activity).
Where [19] appears, read: planktonic P. aeruginosa, read-out: AK-based Prestwick Library Screening Results, P. aeruginosa (increase in extracellular AK activity).
Where [20] appears, read: planktonic A. baumannii, read-out: AK-based Prestwick Library Screening Results, A. baumannii (increase in extracellular AK activity).
Setting [21] is: planktonic E. coli, read-out: AK-based Prestwick Library Screening Results, E. coli (increase in extracellular AK activity).
[22] abbreviates: planktonic, read-out: AK-based Prestwick Library Screening Results, S. aureus (fold increase in extracellular AK activity).
Setting [23] is: planktonic, read-out: AK-based Prestwick Library Screening Results, E. faecium (fold increase in extracellular AK activity).
Where [24] appears, read: planktonic, read-out: AK-based Prestwick Library Screening Results, E. cloacae (fold increase in extracellular AK activity).
[25] abbreviates: planktonic, read-out: AK-based Prestwick Library Screening Results, K. pneumoniae (fold increase in extracellular AK activity).
[26] abbreviates: planktonic, read-out: AK-based Prestwick Library Screening Results, P. aeruginosa (fold increase in extracellular AK activity).
Setting [27] is: planktonic, read-out: AK-based Prestwick Library Screening Results, A. baumannii (fold increase in extracellular AK activity).
Setting [28] is: planktonic, read-out: AK-based Prestwick Library Screening Results, E. coli (fold increase in extracellular AK activity).

Regarding `COC1=CC(=O)C[C@@H](C)[C@]12Oc1c(Cl)c(OC)cc(OC)c1C2=O` [Griseofulvin], the fold induction at 50 µM in assay [1] (setting [8]) was 1.4; in assay [2] (setting [9]), 1.1; in assay [3] (setting [10]), 1.3; in assay [4] (setting [11]), 0.9; in assay [5] (setting [12]), 1.3; in assay [6] (setting [13]), 1.4. Moreover, in assay [7] (setting [14]), the fold induction at 50 µM was 1.3.

Turning to `CN1CCN(C(c2ccccc2)c2ccccc2)CC1` [Cyclizine hydrochloride], the fold induction at 50 µM in assay [1] (setting [15]) came to 0.9; in assay [2] (setting [16]) it was 1; in assay [3] (setting [17]), 0.9; in assay [4] (setting [18]), 0.8; in assay [5] (setting [19]) it was 0.9; in assay [6] (setting [20]) it was 1. Further, the fold induction at 50 µM in assay [7] (setting [21]) turned out to be 0.9.

Consider `NS(=O)(=O)c1cc(C(=O)O)c(NCc2ccco2)cc1Cl` [Furosemide], for which the fold induction at 50 µM in assay [1] (setting [15]) was 0.7; in assay [2] (setting [16]), 0.9; in assay [3] (setting [17]) it was 0.8; in assay [4] (setting [18]), 0.7; in assay [5] (setting [19]) it was 0.9; in assay [6] (setting [20]), 0.8. The fold induction at 50 µM in assay [7] (setting [21]) stood at 1.

`CN(C(=O)C(Cl)Cl)c1ccc(OC(=O)c2ccco2)cc1` [Diloxanide furoate]: the fold induction at 50 µM in assay [1] (setting [22]) is 0.7; in assay [2] (setting [23]), 0.8; in assay [3] (setting [24]), 1.2; in assay [4] (setting [25]), 0.7; in assay [5] (setting [26]), 1; in assay [6] (setting [27]) it was 0.9. For the same compound, the fold induction at 50 µM in assay [7] (setting [28]) turned out to be 1.

For `COc1ccc(C(=O)NCc2cccnc2)cc1C(=O)NCc1cccnc1` [Picotamide monohydrate], the fold induction at 50 µM in assay [1] (384-well format, read-out: AK-based Prestwick Library Screening Results, S. aureus (increase in extracellular AK activity)) amounted to 0.7; in assay [2] (384-well format, read-out: AK-based Prestwick Library Screening Results, E. faecium (increase in extracellular AK activity)), 0.9; in assay [3] (384-well format, read-out: AK-based Prestwick Library Screening Results, E. cloacae (increase in extracellular AK activity)) it was 1.2; in assay [4] (384-well format, read-out: AK-based Prestwick Library Screening Results, K. pneumoniae (increase in extracellular AK activity)) it was 0.8; in assay [5] (384-well format, read-out: AK-based Prestwick Library Screening Results, P. aeruginosa (increase in extracellular AK activity)), 0.8; in assay [6] (384-well format, read-out: AK-based Prestwick Library Screening Results, A. baumannii (increase in extracellular AK activity)), 0.9. Also, the fold induction at 50 µM in assay [7] (384-well format, read-out: AK-based Prestwick Library Screening Results, E. coli (increase in extracellular AK activity)) was 0.9.

Consider `CN(C)CC/C=C1\c2ccccc2CSc2ccccc21` [Dosulepin hydrochloride], for which the fold induction at 50 µM in assay [1] (setting [15]) turned out to be 0.5; in assay [2] (setting [16]), 0.9; in assay [3] (setting [17]), 0.5; in assay [4] (setting [18]), 0.5; in assay [5] (setting [19]) it was 0.5; in assay [6] (setting [20]), 0.5. Further, the fold induction at 50 µM in assay [7] (setting [21]) is 0.6.

For `CC(=O)OCC(=O)NCCCOc1cccc(CN2CCCCC2)c1` [Roxatidine Acetate HCl], the fold induction at 50 µM in assay [1] (setting [15]) was 0.6; in assay [2] (setting [16]), 1; in assay [3] (setting [17]), 0.9; in assay [4] (setting [18]), 0.7; in assay [5] (setting [19]), 0.7; in assay [6] (setting [20]), 0.8. Also, in assay [7] (setting [21]), the fold induction at 50 µM is 0.8.

`CCOC(=O)c1ccc(OC(=O)CCCCCN=C(N)N)cc1.CS(=O)(=O)O` [Gabexate mesilate]: the “AK-based Prestwick library screening result, S. aureus (fold increase in extracellular AK activity)” value in assay [1] (planktonic S. aureus, positive cutoff 3-fold increase) is 1.3. For the same compound, the “AK-based Prestwick library screening result, E. faecium (fold increase in extracellular AK activity)” value in assay [2] (planktonic E. faecium, positive cutoff 3-fold increase) stood at 1.1. For the same compound, in assay [3] (planktonic E. cloacae, positive cutoff 3-fold increase), the “AK-based Prestwick library screening result, E. cloacae (fold increase in extracellular AK activity)” value was found to be 1.4. Moreover, in assay [4] (planktonic K. pneumoniae, positive cutoff 3-fold increase), the “AK-based Prestwick library screening result, K. pneumoniae (fold increase in extracellular AK activity)” value came out at 0.9. Further, the “AK-based Prestwick library screening result, P. aeruginosa (fold increase in extracellular AK activity)” value in assay [5] (planktonic P. aeruginosa, positive cutoff 3-fold increase) was determined as 1.1. In addition, the “AK-based Prestwick library screening result, A. baumannii (fold increase in extracellular AK activity)” value in assay [6] (planktonic A. baumannii, positive cutoff 3-fold increase) is listed as 1.1. Also, in assay [7] (planktonic E. coli, positive cutoff 3-fold increase), the “AK-based Prestwick library screening result, E. coli (fold increase in extracellular AK activity)” value is recorded as 1.1.

On to `CCOC(=O)C1=C(C)NC(C)=C(C(=O)OC)C1c1cccc([N+](=O)[O-])c1` (stereo not shown) [Nitrendipine], for which the fold induction at 50 µM in assay [1] (setting [22]) worked out at 0.4; in assay [2] (setting [23]), 0.9; in assay [3] (setting [24]) it was 1.4; in assay [4] (setting [25]) it was 0.8; in assay [5] (setting [26]) it was 0.9; in assay [6] (setting [27]) it was 0.9. The fold induction at 50 µM in assay [7] (setting [28]) is 0.8.

As for `CN(C)[C@@H]1C(O)=C(C(N)=O)C(=O)[C@@]2(O)C(O)=C3C(=O)c4c(O)ccc(Cl)c4[C@@](C)(O)[C@H]3C[C@@H]12` [Chlortetracycline hydrochloride], the fold induction at 50 µM came to 6.8 in assay [1] (setting [8]); 0.9 in assay [2] (setting [9]); 1 in assay [3] (setting [10]); 0.2 in assay [4] (setting [11]); 0.7 in assay [5] (setting [12]); 3.9 in assay [6] (setting [13]). Besides, in assay [7] (setting [14]), the fold induction at 50 µM amounted to 0.8.

The values are drawn from patent US10004701B2, “Methods and compositions for treating infection” (UNIVERSITY OF ROCHESTER, priority 2012, dated 2018).
